From patent publication US20130253202A1, “METHOD OF TREATING HEMATOLOGICAL CANCERS” (Niiki Pharma Inc., priority 2010, published 2013)
pIC50: −log10 of the molar value.

Columns and labels:
[1] = tested on: WSU-DLCL2 cells; conditions: Aref et al. 1999, Levi et al. 2010; cited from earlier work
[2] = tested on: MV4-11 cells; conditions: Colado et al. 2008, Scatena et al. 2010; cited from earlier work
[3] = tested on: Granta 519 cells; test: Anti-proliferation assay (Cell Titer-Glo) in Granta 519 mantle cell lymphoma cells; assay type: cell-based, human; conditions: 96 total hours of culture, read-out: IC50 in Granta 519 (inhibition of cell growth)
Description: (§1) To determine the antiproliferative activity of sodium trans-[tetrachlorobis(1H-indazole)ruthenate(III)] in human lymphoma tumor cell lines, anti-proliferation assays were conducted in the DoHH2 (follicular lymphoma), Granta 519 (mantle cell lymphoma), and WSU-DLCL2 (diffuse large B cell lymphoma) cell lines. The DoHH2 Human EBV-negative B Cell Lymphoma cells were seeded with 5,000 cells/well and grown in RPMI1640 medium containing 20% FBS, and 2mM L-Glutamine. The Granta 519 Human Mantle Cell Lymphoma cells were seeded with 10,000 cells/well and grown in DMEM medium containing 10% FBS, and 2 mM L-Glutamine. The WSU-DLCL2 Human B Cell Lymphoma cells were seeded with 5,000 cells/well and grown in RPMI1640 medium containing 10% FBS, and 2mM L-Glutamine. Specifically, the human tumor cells were placed in a 96-well microculture plate at the appropriate density for 96 hours of total growth time. After 24 hours of incubation in a humidified incubator at 37° C. with 5% CO2 and 95% air, serially diluted test agents in growth medium were added to each well. After 96 total hours of culture in a CO2 incubator, the plates were processed with Cell Titer-Glo (Promega #G7571) according to manufacturer's instructions. Luminescence was detected using a Tecan GENios microplate reader. Percent inhibition of cell growth was calculated relative to untreated control wells. […]

[4] = tested on: DoHH2 cells; test: Anti-proliferation assay (Cell Titer-Glo) in DoHH2 follicular lymphoma cells; assay type: cell-based, human; conditions: 96 total hours of culture, read-out: IC50 in DoHH2 (inhibition of cell growth)
Description: as §1

[5] = tested on: WSU-DLCL2 cells; test: Anti-proliferation assay (Cell Titer-Glo) in WSU-DLCL2 diffuse large B cell lymphoma cells; assay type: cell-based, human; conditions: 96 total hours of culture, read-out: IC50 in WSU-DLCL2 (inhibition of cell growth)
Description: as §1

[6] = tested on: MV4-11 cells; test: Anti-proliferation assay (Cell Titer-Glo) in MV4-11 human leukemia cells; assay type: cell-based
Description: The human leukemia cell line MV4-11 cells [biphenotypic B myelomonocytic leukemia, lymphoblast morphology] were placed in a 96-well microculture plate (Costar white, flat bottom #3917) in a total volume of 90 μL/well. After 24 hours of incubation in a humidified incubator at 37° C. with 5% CO2 and 95% air, 10 μL of 10X, serially diluted sodium trans-[tetrachlorobis(1H-indazole)ruthenate(III)] in growth medium was added to each well. After 96 total hours of culture in a CO2 incubator, the plated cells and Cell Titer-Glo (Promega #G7571) reagents were brought to room temperature to equilibrate for 30 minutes. 100 μL of Cell Titer-Glo® reagent was added to each well. The plate was shaken for 2 minutes and then left to equilibrate for 10 minutes before reading luminescence on the Tecan GENios microplate reader. Percent inhibition of cell growth was calculated relative to untreated control wells. All tests were performed in duplicate at each concentration level. The IC50 value for the test agent was estimated using Prism 3.03 by curve-fitting the data using the following four parameter-logistic equation: […]

For `COc1cccc2c1C(=O)c1c(O)c3c(c(O)c1C2=O)C[C@@](O)(C(=O)CO)C[C@@H]3O[C@H]1C[C@H](N)[C@H](O)[C@H](C)O1` [doxorubicin], the “resistance of WSU-DLCL2 cells to the drug” value [1] is listed as “resistant” and the “resistance of MV4-11 cells to the drug” value [2] is listed as “resistant”.
For `N[C@@H](Cc1ccc(N(CCCl)CCCl)cc1)C(=O)O` [melphalan], the “resistance of WSU-DLCL2 cells to the drug” value [1] is given as “resistant”.
Work on `[Cl][Ru-]([Cl])([Cl])[Cl].[Na+].c1ccc2[nH]ncc2c1.c1ccc2[nH]ncc2c1` [sodium trans-[tetrachlorobis(1H-indazole)ruthenate(III)]] yielded a pIC50 [3] of 4.20, a pIC50 [4] of 5.14 and a pIC50 [5] of 4.60. For the same molecule, the pIC50 ([6]; 96 total hours of culture, compound added after 24 hours, Cell Titer-Glo, read-out: IC50 on MV4-11 (inhibition of cell growth)) was 5.07 and the “inhibition of proliferation of MV4-11 cells (FIG. 1), dose-dependent maximum” value ([6]; exposure time 24 hours, % of control) was “up to 100%”.
In the case of `Nc1ccn([C@@H]2O[C@H](CO)[C@@H](O)[C@@H]2O)c(=O)n1` [Ara-C, cytarabine], the “resistance of MV4-11 cells to the drug” value [2] is listed as “resistant”.
